The text below walks through data of patent US20100004247A1, “COMBINATION COMPRISING A MEK INHIBITOR AND AN AURORA KINASE INHIBITOR 188” (AstraZeneca AB, priority 2007, published 2010).

The subject of series [1] is Calu-6 human lung tumour xenografts. In words: In vivo combination study in the Calu-6 human lung cancer xenograft model (tumour growth inhibition). Conditions: Day 35; AZD1152 150 mg/kg/day s.c. infusion 2 days; AZD6244 25 mg/kg twice daily oral 14 days; 24 h gap in sequences. On the set-up: species or system female athymic mice (Swiss nu/nu genotype). How it is done: To establish the in vivo efficacy of combination therapy of AZD1152 and AZD6244 in Calu-6 human lung xenograft model, experiments were conducted in female athymic mice (Swiss nu/nu genotype, ≧6 weeks of age). Calu-6 human lung tumour xenografts were established in mice by injecting 1×10^6 cells (100 μl volume containing 50% Matrigel®) subcutaneously in the dorsal flank. Tumour volumes were assessed using bilateral Vernier calliper measurement at least twice weekly and calculated using the formula (length×width)×√(length×width)×(π/6), where length was taken to be the longest diameter across the tumour and width the corresponding perpendicular. Mice were randomised into 4 treatment groups (10 mice/group) when the mean tumour volume reached approximately 0.2 cm^3. Following randomisation, mice were treated with drug vehicles for AZD1152 or AZD6244, AZD1152, AZD6244 or a combination of AZD1152 plus AZD6244 according to treatment schedules described below: […]
Tumour growth inhibition was assessed by comparison of the differences in tumour volume between control and treated groups on Day 35 of the study. The effects of combination treatment sequence were assessed by comparing any effect on tumour growth in the group of animals receiving AZD1152 and AZD6244 with tumour growth in the groups where animals received single agent therapy alone. […]
(In general: Xenograft models place foreign cells or tissue in a host animal.)

A short description of series [2]: Pro-drug conversion to active moiety in human plasma. The format is in vitro ADME.

Take `CCN(CCCOc1ccc2c(Nc3cc(CC(=O)Nc4cccc(F)c4)n[nH]3)ncnc2c1)CCOP(=O)(O)O` [AZD1152, 2-{[3-({4-[(5-{2-[(3-fluorophenyl)amino]-2-oxoethyl}-1H-pyrazol-3-yl)amino]quinazolin-7-yl}oxy)propyl](ethyl)amino}ethyl dihydrogen phosphate]: the “growth inhibition of Calu-6 tumours compared to the vehicle-dosed group” value in series [1] is on record as 94.7%. Moreover, the “conversion of pro-drug to the active moiety AZD1152 HQPA” value in series [2] is “rapidly and completely converted”. Turning to `Cn1cnc2c(F)c(Nc3ccc(Br)cc3Cl)c(C(=O)NOCCO)cc21` [AZD6244, 6-(4-Bromo-2-chloro-phenylamino)-7-fluoro-3-methyl-3H-benzoimidazole-5-carboxylic acid (2-hydroxy-ethoxy)-amide], in series [1], the “growth inhibition of Calu-6 tumours compared to the vehicle-dosed group” value was 57.8%.
